Reference: patent US10577333B2, “Tetrazole derivatives as cytochrome P450 inhibitors” (C26 Bioscience AB, priority 2016, dated 2020)

Tests used:
[1] = system: atRA responsive genes CYP26B1 and RARβ; assay: QRT-PCR of atRA responsive genes CYP26B1 and RARβ mRNA in human aortic smooth muscle cells; assay type: cell-based; settings: AOSMCs
Procedure: FIG. 1 illustrates the induction of CYP26B1 and RARβ mRNA at different concentrations of test compound: A) CYP26 and B) RARβ in human smooth muscle cells treated with 0.001-10 μM of the test compound. For all experiments n=3; *P≤0.05, **P<0.01 and ***P<0.001.
FIG. 2 are diagrams of CYP26B1 and RARβ mRNA expression in human smooth muscle cells upon treatment with atRA and/or test compound: A) CYP26B1 and B) RARβ mRNA expression in human smooth muscle cells treated with either 1 μm of atRA, test compound or combination of both for 48 h. The experiment was performed in three independent runs; *P≤0.05, **P<0.01 and ***P<0.001.
Human aortic smooth muscle cells (AOSMCs) were treated with different concentrations of a compound of Formula II (0.001-10 μM; FIGS. 1A and B). AOSMCs were incubated with different concentration (0.001-10 μM) of compound according to Formula II, or DMSO as control, at 37 C for 24 h. Total RNA were isolated by using E.Z.N.A total RNA kit (VWR Stockholm Sweden) and cDNA synthesis was performed through high capacity reverse transcription kits (applied Biosystems, Foster City, Calif., USA) according to manufacturers instructions.
Next, human AOSMCs were treated with either 1 μM of atRA or a compound of Formula II alone, or a combination of both for 48 h. The purification and analysis procedures were as described above. […] The results strongly indicate that the compound of Formula II increases retinoid signalling.

purified CYP26B1 = target: T1, purified CYP26B1 (Homo sapiens, UniProt Q9NR63); assay: Enzymatic assay on purified CYP26B1 with oxidoreductase and NADPH, [3H] atRA, HPLC; assay type: biochemical; settings: 5 μM, 5 nM CYP26B1, 50 nM [3H] atRA, 1 mM NADPH, 10 sec to 10 min
T1 construct: made in house
T1 sequence (Q9NR63 1-512): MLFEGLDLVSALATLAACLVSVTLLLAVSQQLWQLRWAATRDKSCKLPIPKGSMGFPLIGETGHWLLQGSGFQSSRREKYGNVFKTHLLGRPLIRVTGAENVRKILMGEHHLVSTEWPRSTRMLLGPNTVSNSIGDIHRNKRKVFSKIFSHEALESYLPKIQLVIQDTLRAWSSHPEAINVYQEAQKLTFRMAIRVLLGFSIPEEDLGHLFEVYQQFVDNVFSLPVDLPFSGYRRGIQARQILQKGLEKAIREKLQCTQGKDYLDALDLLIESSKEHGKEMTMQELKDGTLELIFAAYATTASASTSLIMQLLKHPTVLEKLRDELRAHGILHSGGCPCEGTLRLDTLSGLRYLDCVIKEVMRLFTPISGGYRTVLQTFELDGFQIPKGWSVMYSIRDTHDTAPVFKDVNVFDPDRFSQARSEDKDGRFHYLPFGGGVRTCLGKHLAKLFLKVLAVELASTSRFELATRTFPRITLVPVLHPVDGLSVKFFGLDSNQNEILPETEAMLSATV
Procedure: FIG. 4 is a graph showing results from an enzymatic assay carried out on purified CYP26B1, incubated with 5 or 25 μM of the test compound in the presence of oxidoreductase and NADPH, at different time points. The control experiment was performed without initiation with NADPH. For all experiments n=3.
To investigate the efficiency of the compound of Formula II in blocking CYP26B1, CYP26B1 was purified and subsequently incubated with 5 and 25 μM of compound of Formula II for different time points (10 s to 10 min). This experiment thus excludes any other possible metabolic route that potentially could have been present in the cellular experiments. Purified CYP26B1 was stored in buffer containing 50 mM K2HPO4, 0.5 mM EDTA and 20% of glycerol, pH 7.4 at −80° C. The assay was performed as follows: 5 nM of CYP26B1 and 10 nM oxidoreductase was preincubated. 5 or 25 μM of the compound of Formula II and 50 nM [^3H] atRA were added followed by addition of 1 mM NADPH in total volume of 100 μl of Kpi buffer and incubated for 10 sec to 10 min. The reaction was stopped by adding 100 μl absolute ethanol. The sample was subsequently extracted and analysed by HPLC. For control, experiments were performed as above but without initiation of the reaction by NADPH.

CYP26B1 [2] = target: T2, CYP26B1 (Homo sapiens, UniProt Q9NR63); assay: [3H] atRA catabolism in CYP26B1 transfected COS-1 cells, HPLC analysis; assay type: cell-based; design: expressed in transfected cells; host or cells: COS-1; settings: 1 or 10 μM for 1 h, then [3H] atRA for 2 h
T2 sequence (Q9NR63 1-512): T1 sequence (Q9NR63 1-512)
Procedure: (§1) FIG. 3 illustrates quantification of atRA levels by HPLC in human smooth muscle cells and transfected COS-1 cells: A) Human smooth muscle cells were treated with 1 or 10 μM of the new CYP26 inhibitor for 1 h followed by a 4 h [^3H] atRA incubation. B) COS-1 transfected by 1 μg/μL of CYP26B1 and incubated with 1 or 10 μM of test compound followed by a 2 h [^3H] atRA incubation. For all experiments n=3; *P<0.05, **P<0.01 and ***P<0.001.
To investigate the specificity of our candidate to inhibit CYP26B1-mediated catabolism of atRA, COS-1 cells were transfected with CYP26B1 or an empty vector (in which case no CYP26B1 can be produced). COS-1 was maintained in Dulbecco's Modified Eagle's Medium (DMEM; Life Technologies, Carsbad, Calif., USA) and transfection of COS-1 was performed in 12 well plates using 1 μg/μl of CYP26B1 and 2 μl of lipofectamin 2000 in 250 μl of Opti-MEM (Opti-MEM: Modified Eagle's Minimum Essential Media; Life Technologies, Carlsbad, Calif., USA). The mixture was incubated at room temperature for 20 minutes and added to the plate for 4 h followed by addition of growth medium for 24 h. The next day, the medium was replaced by fresh DMEM and treated by 1 or 10 μM of the compound according to Formula II for 1 h followed by exposure to 1 μCl/ml of [^3H] atRA for 2 h, and subsequent HPLC analysis.

CYP26B1 [3] = target: T2, CYP26B1; assay: [3H] atRA catabolism in human smooth muscle cells, HPLC analysis; assay type: cell-based; design: endogenous in cells; host or cells: human aortic smooth muscle cells (AOSMC); settings: AOSMCs, 1 or 10 μM for 1 h, then [3H] atRA for 4 h
Procedure: as §1
AOSMCs were seeded out in density of 2×10^5 in 6 well plates incubated with two different concentrations (1 and 10 μM) of compound according to Formula II for 1 h followed by exposure to 1 μCl/ml of [^3H] atRA for 4 h. Cells were thereafter washed using BSA 1 mg/ml of PBS followed by HPLC analysis.

[4] = 1 μM in combination with atRA, 48 h
[5] = 0.001-10 μM, 24 h, normalized to Cyclophilin A, vs DMSO control

RA degradation by purified CYP26B1 (purified CYP26B1): efficiently inhibited RA degradation
degradation of atRA in the cells (CYP26B1 [3]): greatly reduces the degradation of atRA
Structure (SMILES): Cn1nnnc1SCCC(=O)NCc1ccc(C(=O)O)cc1 [compound of Formula II]
effect of atRA on induction of CYP26B1 mRNA [1, 4]: significantly increased the effects of atRA on the induction
effect of atRA on induction of RARβ mRNA [1, 4]: significantly increased the effects of atRA on the induction
expression of CYP26B1 mRNA [1, 5]: significantly induced in a dose-dependent manner
expression of RARβ mRNA [1, 5]: significantly induced in a dose-dependent manner
levels of atRA (CYP26B1 [2]): significantly increased the levels of atRA
